Test systems include T-47D breast; SNB-75 CNS; SN12C renal; DU-145 prostate; OVCAR-4 ovarian; SF-268 CNS; TK-10 renal; NCI-H226 lung; HCT-116 colon; MCF7 breast.
Holding throughout (assay): NCI anticancer screen, dose series, 48 h

Each structure is given as a SMILES string.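 1) Cells in 96-well plates. 2) Compound, 48 h, 5 concentrations. 3) Linear interpolation between surrounding doses. 4) Unreached endpoint = highest concentration. Here, GI50 denotes the concentration required for 50% inhibition of growth. At the TGI there is no net growth.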

Regarding `COc1cc(Nc2ncc(-c3ccccc3)o2)cc(OC)c1`, the GI50 was > 25 µM with T-47D breast; 3.19 µM with SNB-75 CNS; > 25 µM in the assay on SN12C renal; > 25 µM with DU-145 prostate; > 25 µM in the assay with OVCAR-4 ovarian; > 25 µM in the assay on SF-268 CNS. Moreover, the GI50 with TK-10 renal was > 25 µM; in the assay with NCI-H226 lung, > 12.5 µM; in the assay with HCT-116 colon, > 25 µM; with MCF7 breast, > 25 µM. Moreover, the TGI in the assay on T-47D breast, with SNB-75 CNS, in the assay with SN12C renal, with DU-145 prostate, in the assay on OVCAR-4 ovarian and with SF-268 CNS was > 25 µM in each case. Also, the TGI in the assay with TK-10 renal, with NCI-H226 lung, with HCT-116 colon and in the assay with MCF7 breast was > 25 µM in each case.

For `COC(=O)[C@H](Cc1cnc[nH]1)NC(=O)[C@@H](NC(=O)Nc1cc(C(F)(F)F)cc(C(F)(F)F)c1)C(C)C`, the GI50 was 12.4 µM in the assay with T-47D breast; 13.5 µM with SNB-75 CNS; 14.5 µM in the assay on SN12C renal; 17.8 µM in the assay with DU-145 prostate; 15 µM in the assay with OVCAR-4 ovarian; 15.2 µM in the assay with SF-268 CNS. In addition, the GI50 in the assay on TK-10 renal is 16.6 µM; in the assay with NCI-H226 lung, 16.8 µM; in the assay on HCT-116 colon it was 18.9 µM; with MCF7 breast it was 14.4 µM. Further, the TGI with T-47D breast was 28 µM; with SNB-75 CNS it was 27 µM; in the assay on SN12C renal it was 28 µM; with DU-145 prostate, 32.7 µM; with OVCAR-4 ovarian it was 29 µM; in the assay on SF-268 CNS, 31.1 µM. The TGI in the assay with TK-10 renal was 30.7 µM; with NCI-H226 lung, 36 µM; with HCT-116 colon it was 40.7 µM; in the assay on MCF7 breast it was 29.6 µM.

As to `CC1(C)CNc2cc(NC(=O)c3cccnc3NCc3ccncc3)ccc21`, the GI50 with T-47D breast was 17 µM; in the assay with SNB-75 CNS, 1.87 µM; in the assay with SN12C renal it was 25.5 µM; in the assay on DU-145 prostate, 23 µM; with OVCAR-4 ovarian, 18 µM; with SF-268 CNS, 28.1 µM. For the same compound, the GI50 with TK-10 renal is 43.1 µM; in the assay with NCI-H226 lung, 11 µM; with HCT-116 colon it was 34.3 µM; with MCF7 breast, 23 µM. The TGI was > 88.5 µM with T-47D breast; > 100 µM in the assay on SNB-75 CNS; > 100 µM with SN12C renal; > 100 µM in the assay on DU-145 prostate; > 100 µM in the assay with OVCAR-4 ovarian; > 100 µM in the assay on SF-268 CNS. The TGI was > 100 µM with TK-10 renal, 46.1 µM in the assay on NCI-H226 lung, > 100 µM in the assay with HCT-116 colon and > 100 µM in the assay on MCF7 breast.

`COCc1c(-c2cc3cc(C)cc(OC)c3s2)c2c(N)ncnn2c1CN1CCNC(=O)C1`: the GI50 in the assay on T-47D breast is 4.84 µM; with SNB-75 CNS, 2.13 µM; with SN12C renal it was 4.02 µM; in the assay on DU-145 prostate it was 4.99 µM; with OVCAR-4 ovarian, 1.88 µM; with SF-268 CNS it was 4.3 µM. For the same compound, the GI50 with TK-10 renal is 3.64 µM; in the assay on NCI-H226 lung, 0.291 µM; in the assay with HCT-116 colon, 5.08 µM; with MCF7 breast it was 3.82 µM. The TGI in the assay on T-47D breast is 47.4 µM; in the assay with SNB-75 CNS, 17.8 µM; with SN12C renal, 67.1 µM; with DU-145 prostate it was > 100 µM; in the assay with OVCAR-4 ovarian, 61.1 µM; in the assay on SF-268 CNS, > 100 µM. Further, the TGI in the assay on TK-10 renal was 30.6 µM; with NCI-H226 lung it was 5.41 µM; in the assay with HCT-116 colon, 44.4 µM; with MCF7 breast, 33.6 µM.

Consider `COc1ccc(Cc2coc3ccccc3c2=O)cc1OC`, for which the TGI with T-47D breast, with SNB-75 CNS, with SN12C renal, in the assay with DU-145 prostate, with OVCAR-4 ovarian and in the assay on SF-268 CNS was > 100 µM in each case. In addition, the TGI in the assay on TK-10 renal, in the assay with NCI-H226 lung, with HCT-116 colon and in the assay on MCF7 breast was > 100 µM each time.

With `CC(N)(Cc1c[nH]c2cccc(F)c12)C(=O)O` (stereo not given), the GI50 was 978 µM in the assay on T-47D breast; 405 µM with SNB-75 CNS; > 1000 µM in the assay with SN12C renal; > 1000 µM with DU-145 prostate; > 1000 µM with OVCAR-4 ovarian; > 1000 µM in the assay with SF-268 CNS. For the same compound, the GI50 with TK-10 renal, in the assay on HCT-116 colon and in the assay with MCF7 breast was > 1000 µM each time. Further, the TGI in the assay on T-47D breast, in the assay with SNB-75 CNS, in the assay with SN12C renal, in the assay with DU-145 prostate, with OVCAR-4 ovarian and in the assay with SF-268 CNS was > 1000 µM throughout. The TGI in the assay with TK-10 renal, in the assay on HCT-116 colon and in the assay with MCF7 breast was > 1000 µM throughout.

For the compound `Cc1csc2[n+]1-c1ccccc1N(C(=O)Nc1ccccc1)C(C)C2` (stereo not given), the GI50 in the assay on T-47D breast is > 100 µM; with SN12C renal it was > 100 µM; in the assay on SF-268 CNS it was > 100 µM; in the assay with TK-10 renal, > 100 µM; in the assay with NCI-H226 lung it was > 100 µM; in the assay with HCT-116 colon it was 16.5 µM. In the assay on MCF7 breast, the GI50 was 48.7 µM. For the same compound, the TGI is > 100 µM with T-47D breast; > 100 µM with SN12C renal; > 100 µM in the assay with SF-268 CNS; > 100 µM in the assay with TK-10 renal; > 100 µM in the assay with NCI-H226 lung; 31.5 µM in the assay with HCT-116 colon. Moreover, the TGI in the assay on MCF7 breast was > 100 µM.

As to `OC(COC(c1ccccc1)(c1ccccc1)c1ccccc1)C(O)CC1SCCS1` (stereo not given), the TGI in the assay with T-47D breast stood at 58.3 µM; in the assay on SN12C renal, 45.2 µM; in the assay with DU-145 prostate, 41.5 µM; in the assay with SF-268 CNS, 50.9 µM; in the assay on TK-10 renal it was 39.6 µM; in the assay with NCI-H226 lung it was 35.3 µM. Further, the TGI in the assay with HCT-116 colon came out at 37.1 µM; in the assay with MCF7 breast, 71.9 µM.

The values are drawn from PubChem BioAssay (NCI).
